Counter-ions that a name gives are not always drawn.
What follows are compounds tested against T1, human α1D adrenergic receptor (Homo sapiens, UniProt P25100) (assay: Measurement of α1D adrenergic receptor binding inhibitory activity ([3H]-prazosin binding to membrane fraction of CHO-K1 cells expressing the receptor)). Details: compound at 1 μM; [3H]-prazosin 2.5 nM; membrane fraction 20 μg/well; room temperature, 1 hr; read-out: Binding inhibitory rate (%) (α1D adrenergic receptor binding inhibitory rate).
T1 construct: expressed in transfected cells; membrane fraction used
T1 sequence (P25100 1-572): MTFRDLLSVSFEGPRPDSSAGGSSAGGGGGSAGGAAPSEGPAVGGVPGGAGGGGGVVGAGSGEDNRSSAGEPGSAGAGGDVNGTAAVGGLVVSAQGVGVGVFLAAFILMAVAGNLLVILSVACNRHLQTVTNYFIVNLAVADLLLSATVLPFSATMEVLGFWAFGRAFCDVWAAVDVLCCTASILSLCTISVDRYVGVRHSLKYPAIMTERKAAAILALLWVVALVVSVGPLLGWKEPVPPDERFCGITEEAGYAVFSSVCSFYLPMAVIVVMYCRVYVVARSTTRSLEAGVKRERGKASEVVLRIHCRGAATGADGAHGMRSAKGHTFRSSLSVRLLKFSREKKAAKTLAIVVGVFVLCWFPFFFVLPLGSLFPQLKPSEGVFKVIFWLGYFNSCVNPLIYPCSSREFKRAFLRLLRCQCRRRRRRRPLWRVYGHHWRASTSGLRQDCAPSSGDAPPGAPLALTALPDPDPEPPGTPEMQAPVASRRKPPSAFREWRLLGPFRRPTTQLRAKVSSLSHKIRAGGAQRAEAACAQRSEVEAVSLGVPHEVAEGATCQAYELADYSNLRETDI
Method: Measurement of α1D Adrenergic Receptor Binding Inhibitory Activity
(i) Preparation of Human α1D Adrenergic Receptor Expression Plasmid
α1D Adrenergic Receptor Gene was Cloned from Human Liver cDNA by the PCR method. PCR reaction was performed by Gene Amp PCR System 9700 (Applied Biosystems) with 50 pmol each of the primer set 5′-[…]-3′ [SEQ ID NO: 1] and 5′-[…]-3′ [SEQ ID NO: 2] prepared in reference to the base sequence of the α1D adrenergic receptor gene reported by DEBRA A. et al. (J. Pharamacol. Exp. Ter., 272, 134-142 (1995)), 200 ng of human brain hippocampus cDNA library (Takara Shuzo Co., Ltd.) as a template and TaKaRa LA-Taq DNA Polymerase (Takara Shuzo Co., Ltd.) (reaction conditions: 45 cycles of 94° C. for 15 sec, 68° C. for 3.5 min).
The PCR fragment obtained above was digested with restriction enzymes NheI (Takara Shuzo Co., Ltd.) and Kpn I (Takara Shuzo Co., Ltd.), and applied to agarose gel electrophoresis to recover DNA fragments. The DNA fragments were ligated with animal cell expression plasmid pcDNA3.1/Zeo (Invitrogen) digested with NheI and Kpn I, by DNA Ligation Kit Ver. 2 (Takara Shuzo Co., Ltd.), and transformed the competent cells of Escherichia coli JM109 to obtain plasmid, pcDNA3.1/Zeo-Adreα1D.
(ii) Introduction of Human α1D Adrenergic Receptor Expression Plasmid into CHO-K1 Cells and Preparation of Membrane Fraction
CHO-K1 cells passage cultured in HamF12 medium (Invitrogen) containing 10% fetal bovine serum (TRACE SCIENCETIFIC) in a 150 cm^2 culture flask (Corning Coaster) were detached with 0.5 g/L trypsin-0.2 g/L EDTA (Invitrogen), and the cells were washed with D-PBS(−) (Invitrogen) and centrifuged (1000 rpm, 5 min). Then, using Gene Pulser II (BioRad), DNA was introduced into the cells under the following conditions. 1×10^7 cells suspended in D-PBS(−) (700 μl) and 10 μg of pcDNA3.1/Zeo-Adreα1D were added in a 0.4 cm gap cuvette (BioRad), and electroporation was performed under voltage 0.25 kV, capacitance 960 μF. The cells were cultured in HamF12 medium containing 10% fetal bovine serum and 250 μg/mL Zeocin (Invitrogen) and the Zeocin resistance clones were selected.
Plurality of Zeocin resistance clones were selected and cultured in a cell culture flask (150 cm^2) until semiconfluent, and the cellular membrane fraction was prepared as follows.
The semiconfluent cells were detached with 0.02% EDTA containing D-PBS(−) and recovered by centrifugation. The cells were suspended in membrane preparation buffer (10 mM NaHCO3 pH 7.4, protease inhibitor cocktail (Roche)) and disrupted by 3 times of treatment in a polytron homogenizer (model PT-3100, KINEMATICA AG) at 20000 rpm for 20 seconds. After disruption, the cells were centrifuged at 2000 rpm for 10 min and the supernatant containing membrane fractions was obtained. The supernatant was centrifuged using an ultracentrifuge (model L8-70M, rotor 70 Ti, Beckman Instruments) at 30000 rpm for 1 hr to obtain a precipitate containing membrane fractions. The obtained membrane fraction of each clone was subjected to the binding experiment shown below.
The membrane fraction (20 μg/well) and [^3H]-prazosin (2.5 nM, PerkinElmer Lifescience), as a ligand, were diluted with a binding assay buffer (50 mM Tris-HCl, 10 mM MgCl2, 0.5% BSA, protease inhibitor cocktail pH 7.5), added to a 96 well microplate, and reacted at room temperature for 1 hr. For the measurement of non-specific binding, phentolamine (Sigma) was further added to 10 μM. Then, the reaction mixture was filtered and transferred to unifilter GF/C (PerkinElmer Lifescience) by using a cell harvester (PerkinElmer Lifescience). The filter was washed 3 times with ice-cooled 50 mM Tris buffer (pH 7.5). After drying the filter, MicroScinti 0 (PerkinElmer Lifescience) was added to the filter and the radioactivity was measured by TopCount (PerkinElmer Lifescience).
(iii) Evaluation of Example Compound […]
CC(c1cccc(Cl)c1)n1cc(Cl)cc(C(N)=O)c1=N (stereo not shown) [Example 1, 5-chloro-1-[1-(3-chlorophenyl)ethyl]-2-imino-1,2-dihydropyridine-3-carboxamide] showed an inhibition at 1 µM of 100%.
In the case of N=c1c(C(N)=O)cc(Cl)cn1C1CCc2ccc(Cl)cc21 (stereo not shown) [Example 2, 5-chloro-1-(6-chloro-2,3-dihydro-1H-inden-1-yl)-2-imino-1,2-dihydropyridine-3-carboxamide], the inhibition at 1 µM is reported as 102%.
CC(c1ccsc1)n1cc(Cl)cc(C(N)=O)c1=N (stereo not shown) [Example 5, 5-chloro-2-imino-1-(1-(thiophen-3-yl)ethyl)-1,2-dihydropyridine-3-carboxamide hydrochloride] gave an inhibition at 1 µM of 79.4%.
In the case of C[C@H](c1cccc(F)c1)n1cc(Cl)cc(C(N)=O)c1=N [Example 12, 5-chloro-1-[(1R)-1-(3-fluorophenyl)ethyl]-2-imino-1,2-dihydropyridine-3-carboxamide hydrochloride], the inhibition at 1 µM is reported as 97%.
C[C@H](c1cc(F)cc(F)c1)n1cc(Cl)cc(C(N)=O)c1=N [Example 14, 5-chloro-1-[(1R)-1-(3,5-difluorophenyl)ethyl]-2-imino-1,2-dihydropyridine-3-carboxamide hydrochloride] was tested, and the inhibition at 1 µM was 100%.
N=c1c(C(N)=O)cc(Cl)cn1C1(c2ccccc2)CC1 [Example 15, 5-chloro-2-imino-1-(1-phenylcyclopropyl)-1,2-dihydropyridine-3-carboxamide] was tested, and the inhibition at 1 µM was 62%.
With N#Cc1ccc2c(c1)C(n1cc(Cl)cc(C(N)=O)c1=N)CC2 (stereo not shown) [Example 19, 5-chloro-1-(6-cyano-2,3-dihydro-1H-inden-1-yl)-2-imino-1,2-dihydropyridine-3-carboxamide hydrochloride] the inhibition at 1 µM was 94.8%.
In the case of C[C@H](c1ccc(F)cc1)n1cc(Cl)cc(C(N)=O)c1=N [Example 22, 5-chloro-1-[(1R)-1-(4-fluorophenyl)ethyl]-2-imino-1,2-dihydropyridine-3-carboxamide hydrochloride], the inhibition at 1 µM is reported as 96.1%.
C[C@H](c1cccc(C#N)c1)n1cc(Cl)cc(C(N)=O)c1=N [Example 23, 5-chloro-1-[(1R)-1-(3-cyanophenyl)ethyl]-2-imino-1,2-dihydropyridine-3-carboxamide hydrochloride] was tested, and the inhibition at 1 µM was 100%.
N=c1c(C(N)=O)cc(Cl)cn1C1CCS(=O)(=O)c2ccc(Cl)cc21 (stereo not shown) [Example 30, 5-chloro-1-(6-chloro-1,1-dioxido-3,4-dihydro-2H-thiochromen-4-yl)-2-imino-1,2-dihydropyridine-3-carboxamide hydrochloride] showed an inhibition at 1 µM of 96.9%.

From US20110039892A1, “IMINOPYRIDINE DERIVATIVE AND USE THEREOF” (TAKEDA PHARMACEUTICAL COMPANY LIMITED, priority 2008, published 2011)
